# Data: paper PMC9403976, “Elucidating the path to Plasmodium prolyl-tRNA synthetase inhibitors that overcome halofuginone resistance” (Nature Communications, 2022)
# “And” between values parts separate entries of the source, which are not always exact repeats. Equal entries are not always repeated. Where two headings read alike, the source gives them in different places.
# Tests used:
# PfcProRS = molecular target: T1, PfcProRS (Plasmodium falciparum, UniProt Q8I5R7); type: binding; conditions: single replicates
# T1 construct: made in house; host or cells: E. coli SoluBL-21
# T1 sequence (Q8I5R7 249-746): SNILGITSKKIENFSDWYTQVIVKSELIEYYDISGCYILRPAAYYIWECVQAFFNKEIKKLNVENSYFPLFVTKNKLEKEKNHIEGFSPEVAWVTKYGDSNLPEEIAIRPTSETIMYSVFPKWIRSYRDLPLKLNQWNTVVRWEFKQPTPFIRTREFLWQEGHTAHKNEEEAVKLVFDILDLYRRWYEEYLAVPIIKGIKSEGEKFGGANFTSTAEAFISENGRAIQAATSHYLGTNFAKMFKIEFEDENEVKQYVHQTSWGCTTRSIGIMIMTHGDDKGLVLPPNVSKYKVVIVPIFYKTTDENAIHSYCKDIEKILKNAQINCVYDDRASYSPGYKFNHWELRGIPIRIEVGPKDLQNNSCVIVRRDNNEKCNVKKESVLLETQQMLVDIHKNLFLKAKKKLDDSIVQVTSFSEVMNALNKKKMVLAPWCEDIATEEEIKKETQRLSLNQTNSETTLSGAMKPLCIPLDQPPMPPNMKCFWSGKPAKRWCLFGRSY
# HsProRS = HsProRS (Homo sapiens, UniProt P07814); experiment: TR-FRET ligand displacement assay with tracer MAT379 (CoraFluor-1-Halo and anti-His6 antibody formats); type: binding; set-up: made in house; host or cells: E. coli SoluBL-21; conditions: for TR-FRET dose-response, normalized signal (SI Fig 11): individual replicates
# Sequence of HsProRS (P07814 996-1512): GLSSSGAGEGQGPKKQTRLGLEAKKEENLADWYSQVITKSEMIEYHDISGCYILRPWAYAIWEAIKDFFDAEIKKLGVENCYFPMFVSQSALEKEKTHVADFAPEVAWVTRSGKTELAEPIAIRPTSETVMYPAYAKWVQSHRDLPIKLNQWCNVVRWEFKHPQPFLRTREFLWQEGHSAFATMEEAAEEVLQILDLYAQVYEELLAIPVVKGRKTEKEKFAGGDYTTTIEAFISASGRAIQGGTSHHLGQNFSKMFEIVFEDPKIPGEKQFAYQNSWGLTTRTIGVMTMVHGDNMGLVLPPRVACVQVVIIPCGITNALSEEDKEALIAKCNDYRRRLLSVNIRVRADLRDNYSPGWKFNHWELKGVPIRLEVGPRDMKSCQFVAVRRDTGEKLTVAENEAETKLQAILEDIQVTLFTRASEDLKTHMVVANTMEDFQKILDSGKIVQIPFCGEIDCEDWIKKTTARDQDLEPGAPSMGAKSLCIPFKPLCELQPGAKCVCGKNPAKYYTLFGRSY
structure (smiles),measurement,setting,value
NC1CCN(C(=O)Nc2nccnc2C(=O)NC2Cc3ccccc3C2)CC1 [compound 8],"dose-response signal (normalized), SI Fig 8",PfcProRS; Log[inhibitor] (M) -5.000,9.61E-01 and 8.92E-01 and 8.44E-01
same,"dose-response signal (normalized), SI Fig 8",PfcProRS; Log[inhibitor] (M) -5.301,8.74E-01 and 9.88E-01 and 9.73E-01
same,"dose-response signal (normalized), SI Fig 8",PfcProRS; Log[inhibitor] (M) -5.601,9.98E-01 and 1.02E+00 and 1.04E+00
same,"dose-response signal (normalized), SI Fig 8",PfcProRS; Log[inhibitor] (M) -5.904,1.08E+00 and 1.04E+00 (2×)
same,"dose-response signal (normalized), SI Fig 8",PfcProRS; Log[inhibitor] (M) -6.208,1.22E+00 and 1.03E+00 and 1.05E+00
same,"dose-response signal (normalized), SI Fig 8",PfcProRS; Log[inhibitor] (M) -6.509,1.14E+00 and 1.03E+00 and 1.04E+00
same,"dose-response signal (normalized), SI Fig 8",PfcProRS; Log[inhibitor] (M) -6.796,1.01E+00 and 1.02E+00 and 1.08E+00
same,"dose-response signal (normalized), SI Fig 8",PfcProRS; Log[inhibitor] (M) -7.108,9.50E-01 and 9.64E-01 and 1.00E+00
same,"dose-response signal (normalized), SI Fig 8",PfcProRS; Log[inhibitor] (M) -7.409,1.03E+00 and 1.01E+00 and 1.12E+00
same,"dose-response signal (normalized), SI Fig 8",PfcProRS; Log[inhibitor] (M) -7.710,1.12E+00 and 1.00E+00 and 9.44E-01
same,"dose-response signal (normalized), SI Fig 8",PfcProRS; Log[inhibitor] (M) -8.000,1.00E+00 and 9.85E-01 and 1.03E+00
same,"dose-response signal (normalized), SI Fig 8",PfcProRS; Log[inhibitor] (M) -8.301,1.00E+00 and 9.83E-01 and 1.01E+00
same,"dose-response signal (normalized), SI Fig 8",PfcProRS; Log[inhibitor] (M) -8.602,1.04E+00 (2×) and 1.03E+00
same,"dose-response signal (normalized), SI Fig 8",PfcProRS; Log[inhibitor] (M) -9.000,9.59E-01 and 1.02E+00 and 1.11E+00
same,"dose-response signal (normalized), SI Fig 8",PfcProRS; Log[inhibitor] (M) -9.301,9.77E-01 and 1.08E+00 and 1.13E+00
same,IC50,HsProRS,> 10 µM
same,"HsProRS % signal at 10 μM, + 100 μM proline","HsProRS; + 100 μM proline, 10 μM",64.1%
same,"normalized TR-FRET ligand displacement signal, dose-response replicates (SI Fig 6)",HsProRS; Log[inhibitor] (M) -5.000,7.72E-01 and 8.67E-01 and 9.20E-01
same,"TR-FRET dose-response, normalized signal (SI Fig 11)",HsProRS; Log[inhibitor] (M) -5.000,7.80E-01 and 8.21E-01 and 8.27E-01
same,"normalized TR-FRET ligand displacement signal, dose-response replicates (SI Fig 6)",HsProRS; Log[inhibitor] (M) -5.301,9.51E-01 and 8.63E-01 and 8.95E-01
same,"TR-FRET dose-response, normalized signal (SI Fig 11)",HsProRS; Log[inhibitor] (M) -5.301,9.22E-01 and 8.53E-01 and 9.03E-01
same,"normalized TR-FRET ligand displacement signal, dose-response replicates (SI Fig 6)",HsProRS; Log[inhibitor] (M) -5.601,9.39E-01 and 9.19E-01 and 9.88E-01
same,"TR-FRET dose-response, normalized signal (SI Fig 11)",HsProRS; Log[inhibitor] (M) -5.601,8.79E-01 and 9.90E-01 and 8.75E-01
same,"normalized TR-FRET ligand displacement signal, dose-response replicates (SI Fig 6)",HsProRS; Log[inhibitor] (M) -5.904,9.40E-01 and 9.19E-01 and 1.05E+00
same,"TR-FRET dose-response, normalized signal (SI Fig 11)",HsProRS; Log[inhibitor] (M) -5.904,9.88E-01 and 9.41E-01 and 9.72E-01
same,"normalized TR-FRET ligand displacement signal, dose-response replicates (SI Fig 6)",HsProRS; Log[inhibitor] (M) -6.208,8.89E-01 and 1.04E+00 and 1.05E+00
same,"TR-FRET dose-response, normalized signal (SI Fig 11)",HsProRS; Log[inhibitor] (M) -6.208,9.38E-01 (2×) and 9.73E-01
same,"normalized TR-FRET ligand displacement signal, dose-response replicates (SI Fig 6)",HsProRS; Log[inhibitor] (M) -6.509,1.02E+00 and 9.90E-01 and 9.84E-01
same,"TR-FRET dose-response, normalized signal (SI Fig 11)",HsProRS; Log[inhibitor] (M) -6.509,9.67E-01 and 9.58E-01 and 9.39E-01
same,"normalized TR-FRET ligand displacement signal, dose-response replicates (SI Fig 6)",HsProRS; Log[inhibitor] (M) -6.796,1.02E+00 and 1.08E+00 and 1.11E+00
same,"TR-FRET dose-response, normalized signal (SI Fig 11)",HsProRS; Log[inhibitor] (M) -6.796,9.44E-01 and 9.26E-01 and 9.45E-01
same,"normalized TR-FRET ligand displacement signal, dose-response replicates (SI Fig 6)",HsProRS; Log[inhibitor] (M) -7.108,1.06E+00 and 1.03E+00 and 1.02E+00
same,"TR-FRET dose-response, normalized signal (SI Fig 11)",HsProRS; Log[inhibitor] (M) -7.108,8.82E-01 and 8.87E-01 and 8.97E-01
same,"normalized TR-FRET ligand displacement signal, dose-response replicates (SI Fig 6)",HsProRS; Log[inhibitor] (M) -7.409,1.03E+00 (2×) and 9.94E-01
same,"TR-FRET dose-response, normalized signal (SI Fig 11)",HsProRS; Log[inhibitor] (M) -7.409,8.83E-01 and 9.01E-01 and 8.97E-01
same,"normalized TR-FRET ligand displacement signal, dose-response replicates (SI Fig 6)",HsProRS; Log[inhibitor] (M) -7.710,9.60E-01 and 1.05E+00 and 1.02E+00
same,"TR-FRET dose-response, normalized signal (SI Fig 11)",HsProRS; Log[inhibitor] (M) -7.710,9.46E-01 and 8.63E-01 and 9.47E-01
same,"normalized TR-FRET ligand displacement signal, dose-response replicates (SI Fig 6)",HsProRS; Log[inhibitor] (M) -8.000,8.80E-01 and 1.08E+00 and 9.66E-01
same,"TR-FRET dose-response, normalized signal (SI Fig 11)",HsProRS; Log[inhibitor] (M) -8.000,9.68E-01 and 9.54E-01 and 9.46E-01
same,"normalized TR-FRET ligand displacement signal, dose-response replicates (SI Fig 6)",HsProRS; Log[inhibitor] (M) -8.301,9.78E-01 and 9.63E-01 and 8.97E-01
same,"TR-FRET dose-response, normalized signal (SI Fig 11)",HsProRS; Log[inhibitor] (M) -8.301,9.20E-01 and 9.17E-01 and 9.26E-01
same,"normalized TR-FRET ligand displacement signal, dose-response replicates (SI Fig 6)",HsProRS; Log[inhibitor] (M) -8.602,9.99E-01 and 9.46E-01 and 8.78E-01
same,"TR-FRET dose-response, normalized signal (SI Fig 11)",HsProRS; Log[inhibitor] (M) -8.602,9.38E-01 and 9.59E-01 and 9.18E-01
same,"normalized TR-FRET ligand displacement signal, dose-response replicates (SI Fig 6)",HsProRS; Log[inhibitor] (M) -9.000,8.55E-01 and 9.99E-01 and 1.05E+00
same,"TR-FRET dose-response, normalized signal (SI Fig 11)",HsProRS; Log[inhibitor] (M) -9.000,9.56E-01 and 9.64E-01 and 9.58E-01
same,"normalized TR-FRET ligand displacement signal, dose-response replicates (SI Fig 6)",HsProRS; Log[inhibitor] (M) -9.301,1.04E+00 and 8.74E-01 and 1.01E+00
same,"TR-FRET dose-response, normalized signal (SI Fig 11)",HsProRS; Log[inhibitor] (M) -9.301,9.54E-01 and 1.00E+00 (2×)
same,HsProRS % signal at 10 μM,"HsProRS; no added proline/ATP (-), 10 μM",81.0%
same,IC50,"HsProRS; read-out: HsProRS IC50 + 100 μM proline, + 100 μM proline",> 10 µM
